Experimental data reported in patent US20220370440A1 (Lead Discovery Center GmbH, priority 2018, published 2022).
Read-outs that look alike come from different tables or passages of the source.

Experiments:
[1] = molecular target: EGFR Exon 20 INSNPH Ba/F3 (Homo sapiens, UniProt P00533, DUP771-773, cells depend on it); test: EGFR Exon 20 INSNPH Ba/F3 CellTiter-Glo; type: cell-based; conditions: 72 h, read-out: EGFR Exon 20 INSNPH Ba/F3 CTG IC50
Description: (§1) 2. Measurement of Cellular Activity
(§2) The CellTiter-Glo Luminescent Cell Viability Assay (Promega) is a homogeneous method of determining the number of viable cells in culture. It is based on quantification of ATP, indicating the presence of metabolically active cells. Cells are seeded on day 1 at cell numbers that assure assay linearity and optimal signal intensity. After incubation for 24 h in humidified chambers at 37° C. and 5% CO2, compounds in DMSO are added at different concentrations. Cells are further incubated for 72 h at 37° C. and 5% CO2. Cells treated with the compound vehicle DMSO are used as positive controls and cells treated with 10 μM Staurosporine serve as negative controls. At day 5 the CellTiter Glo Reagent is prepared according to the instructions of the kit (Promega Inc.): Reagent is mixed 1:1 with cell culture medium. Thereon, mixture and assay plates are equilibrated at room temperature for 20 min. Equal volumes of the reagent-medium-mixture is added to the volume of culture medium present in each well. The plates are mixed at ˜200 rpm for 2 minutes on an orbital shaker. The microplates are then incubated at room temperature for 10 minutes for stabilization of the luminescent signal. Following incubation the luminescence is recorded on a Victor microplate reader (Perkin Elmer) using a 200 ms integration time. The data is then analyzed with Excel using the XLFIT Plugin (dose response Fit 205) for IC50-determination. As quality control the Z′-factor is calculated from 16 positive and negative control values. Only assay results showing a Z′-factor ≥0.5 are used for further analysis.
(§3) Inhibition is indicated as IC50 [nM] (“−”=not measured). Compounds having an activity designated as “A” provided an IC50≤100 nM; compounds having an activity designated as “B” provided an 100 nM<IC50≤500 nM; compounds having an activity designated as “C” provided an 500 nM<IC50≤1000 nM; compounds having an activity designated as “D” provided an 1000 nM<IC50≤10000 nM; and compounds having an activity designated as “E” provided an IC50>10000 nM.

EGFR T790ML858R = EGFR T790ML858R (Homo sapiens, UniProt P00533, L858R/T790M); test: EGFR T790ML858R Lance assay; type: biochemical
Sequence of EGFR T790ML858R (P00533 25-1210 T790M/L858R): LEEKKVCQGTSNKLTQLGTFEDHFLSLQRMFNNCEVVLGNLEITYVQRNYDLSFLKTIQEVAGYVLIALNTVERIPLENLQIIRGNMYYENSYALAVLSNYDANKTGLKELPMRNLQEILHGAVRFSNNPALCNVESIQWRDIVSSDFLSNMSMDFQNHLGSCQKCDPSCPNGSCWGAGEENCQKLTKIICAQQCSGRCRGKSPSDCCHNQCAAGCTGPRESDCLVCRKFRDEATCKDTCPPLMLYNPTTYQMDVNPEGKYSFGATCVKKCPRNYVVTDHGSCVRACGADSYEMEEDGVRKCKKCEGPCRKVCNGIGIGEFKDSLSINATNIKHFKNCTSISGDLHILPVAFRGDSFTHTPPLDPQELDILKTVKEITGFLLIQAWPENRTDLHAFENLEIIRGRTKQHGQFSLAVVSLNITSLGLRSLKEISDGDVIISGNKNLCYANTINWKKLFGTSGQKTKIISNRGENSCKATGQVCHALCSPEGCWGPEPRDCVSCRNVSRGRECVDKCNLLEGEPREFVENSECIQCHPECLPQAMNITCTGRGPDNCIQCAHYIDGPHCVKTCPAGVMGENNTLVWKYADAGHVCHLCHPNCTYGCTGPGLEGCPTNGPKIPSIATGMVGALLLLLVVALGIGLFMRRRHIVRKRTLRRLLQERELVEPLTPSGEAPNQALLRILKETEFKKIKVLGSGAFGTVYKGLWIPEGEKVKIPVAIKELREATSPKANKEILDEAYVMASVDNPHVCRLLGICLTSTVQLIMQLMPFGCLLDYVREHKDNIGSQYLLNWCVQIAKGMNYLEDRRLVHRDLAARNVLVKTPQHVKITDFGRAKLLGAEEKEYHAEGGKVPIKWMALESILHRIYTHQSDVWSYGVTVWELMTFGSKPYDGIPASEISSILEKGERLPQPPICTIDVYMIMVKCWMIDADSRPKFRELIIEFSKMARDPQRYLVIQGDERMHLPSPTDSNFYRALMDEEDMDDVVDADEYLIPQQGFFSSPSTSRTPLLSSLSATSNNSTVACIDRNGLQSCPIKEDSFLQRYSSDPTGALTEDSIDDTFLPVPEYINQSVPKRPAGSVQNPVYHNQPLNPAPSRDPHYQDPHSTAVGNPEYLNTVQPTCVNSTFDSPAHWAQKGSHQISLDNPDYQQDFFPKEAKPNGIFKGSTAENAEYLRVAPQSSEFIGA
Description: (§4) Inhibition is indicated as […] [nM] (“−”=not measured). Compounds having an activity designated as “A” provided an IC50≤100 nM; compounds having an activity designated as “B” provided an 100 nM<IC50≤500 nM; compounds having an activity designated as “C” provided an 500 nM<IC50≤1000 nM; compounds having an activity designated as “D” provided an 1000 nM<IC50≤100000 nM; and compounds having an activity designated as “E” provided an IC50>10000 nM.

[2] = molecular target: Her2 Exon 20 INSYVMA Ba/F3 (Homo sapiens, UniProt P04626, DUP772-775, cells depend on it); test: Her2 Exon 20 INSYVMA Ba/F3 CellTiter-Glo; type: cell-based; conditions: 72 h, read-out: Her2 Exon 20 INSYVMA Ba/F3 CTG IC50
Sequence of Her2 Exon 20 INSYVMA Ba/F3 (P04626 with tags, fused parts or gaps DUP772-775): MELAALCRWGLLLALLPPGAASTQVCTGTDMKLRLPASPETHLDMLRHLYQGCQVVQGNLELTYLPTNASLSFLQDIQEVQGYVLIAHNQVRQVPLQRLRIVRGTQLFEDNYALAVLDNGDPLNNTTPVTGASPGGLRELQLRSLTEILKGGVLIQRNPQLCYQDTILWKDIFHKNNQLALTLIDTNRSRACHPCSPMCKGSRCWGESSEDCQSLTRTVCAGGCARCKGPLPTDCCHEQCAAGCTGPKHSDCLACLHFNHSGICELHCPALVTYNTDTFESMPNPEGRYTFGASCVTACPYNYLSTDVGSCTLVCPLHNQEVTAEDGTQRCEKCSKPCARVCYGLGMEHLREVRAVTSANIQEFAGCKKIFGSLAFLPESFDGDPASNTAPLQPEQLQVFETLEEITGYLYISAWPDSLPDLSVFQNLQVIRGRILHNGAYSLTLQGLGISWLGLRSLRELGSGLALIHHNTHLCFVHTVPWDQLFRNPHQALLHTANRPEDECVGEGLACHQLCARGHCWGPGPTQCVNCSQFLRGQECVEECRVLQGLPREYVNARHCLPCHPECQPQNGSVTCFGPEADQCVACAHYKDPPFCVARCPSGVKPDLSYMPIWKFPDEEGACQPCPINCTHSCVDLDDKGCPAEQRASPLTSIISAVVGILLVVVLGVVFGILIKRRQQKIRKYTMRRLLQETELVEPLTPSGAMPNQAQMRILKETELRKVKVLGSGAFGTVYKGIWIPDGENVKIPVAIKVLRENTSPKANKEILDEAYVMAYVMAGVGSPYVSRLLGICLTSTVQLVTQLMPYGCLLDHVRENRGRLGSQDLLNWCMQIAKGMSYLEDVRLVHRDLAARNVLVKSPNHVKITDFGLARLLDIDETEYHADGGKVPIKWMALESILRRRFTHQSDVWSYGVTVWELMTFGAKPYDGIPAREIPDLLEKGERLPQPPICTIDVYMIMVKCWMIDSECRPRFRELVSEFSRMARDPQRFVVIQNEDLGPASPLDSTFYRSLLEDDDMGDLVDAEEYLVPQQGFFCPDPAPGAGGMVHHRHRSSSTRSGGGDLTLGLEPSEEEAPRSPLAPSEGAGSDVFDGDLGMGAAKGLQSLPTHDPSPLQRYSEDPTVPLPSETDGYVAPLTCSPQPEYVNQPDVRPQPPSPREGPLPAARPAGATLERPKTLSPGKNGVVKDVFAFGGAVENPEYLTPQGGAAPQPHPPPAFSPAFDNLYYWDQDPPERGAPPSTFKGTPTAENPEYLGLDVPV
Description: as §1, §2, §3

EGFR wt = EGFR wt (Homo sapiens, UniProt P00533); test: EGFR wt Lance assay; type: biochemical
Sequence of EGFR wt (P00533 25-1210): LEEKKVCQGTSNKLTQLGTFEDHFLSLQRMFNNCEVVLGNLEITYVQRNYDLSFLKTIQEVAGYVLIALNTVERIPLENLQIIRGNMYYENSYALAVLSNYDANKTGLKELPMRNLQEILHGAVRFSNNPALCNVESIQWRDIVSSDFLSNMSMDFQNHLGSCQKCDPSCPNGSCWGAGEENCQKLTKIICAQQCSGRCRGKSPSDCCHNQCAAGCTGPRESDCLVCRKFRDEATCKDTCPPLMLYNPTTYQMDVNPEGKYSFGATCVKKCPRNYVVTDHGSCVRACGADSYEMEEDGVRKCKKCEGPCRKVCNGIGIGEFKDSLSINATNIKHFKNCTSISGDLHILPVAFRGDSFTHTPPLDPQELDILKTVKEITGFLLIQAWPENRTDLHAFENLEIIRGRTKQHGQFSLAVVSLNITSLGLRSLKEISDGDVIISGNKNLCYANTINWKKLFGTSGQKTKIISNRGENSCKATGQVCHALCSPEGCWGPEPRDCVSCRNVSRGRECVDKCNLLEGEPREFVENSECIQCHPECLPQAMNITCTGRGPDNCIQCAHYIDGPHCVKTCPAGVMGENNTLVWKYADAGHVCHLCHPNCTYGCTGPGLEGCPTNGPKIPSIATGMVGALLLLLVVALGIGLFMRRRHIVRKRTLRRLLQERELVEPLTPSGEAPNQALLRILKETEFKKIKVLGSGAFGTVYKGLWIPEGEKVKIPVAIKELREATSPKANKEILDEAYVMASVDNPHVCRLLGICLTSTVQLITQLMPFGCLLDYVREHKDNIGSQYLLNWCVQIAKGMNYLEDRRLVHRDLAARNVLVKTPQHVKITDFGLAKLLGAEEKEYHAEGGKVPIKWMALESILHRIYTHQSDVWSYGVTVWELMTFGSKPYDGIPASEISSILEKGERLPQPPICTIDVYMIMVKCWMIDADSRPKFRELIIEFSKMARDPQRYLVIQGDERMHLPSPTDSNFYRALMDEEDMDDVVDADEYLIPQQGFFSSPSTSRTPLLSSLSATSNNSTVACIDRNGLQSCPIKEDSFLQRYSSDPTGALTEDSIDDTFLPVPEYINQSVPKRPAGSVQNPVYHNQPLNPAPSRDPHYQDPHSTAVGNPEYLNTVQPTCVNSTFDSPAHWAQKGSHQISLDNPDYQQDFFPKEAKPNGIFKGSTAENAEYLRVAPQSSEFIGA
Description: as §4

H1975 = H1975 CellTiter-Glo; type: cell-based; conditions: Homo sapiens, NCI-H1975; 72 h compound incubation; read-out: H1975 CTG IC50
Description: as §1, §2, §4

HER2 INS YVMA = molecular target: T1, HER2 INS YVMA (Homo sapiens, UniProt P04626, INS775YVMA); test: Lance Kinase Activity Assay, HER2 INS YVMA (Her2 Exon 20 INSYVMA Lance); type: biochemical
T1 construct: purchased DPF
Description: 1. Measurement of HER2 INS YVMA Kinase Activity
This protocol describes how the Lance Kinase Activity Assay was performed to determine IC50 values of compounds of general formula (I) against HER2 INS YVMA. The principle behind this enzymatic assay is based upon the phosphorylation of the Ulight-peptide substrate. It is detected by using a specific EU-labeled anti-phospho peptide antibody. The binding of the Eu labeled anti-phospho peptide antibody to the phosphorylated ULight labeled peptide gives rise to a FRET-signal.
Binding of an inhibitor to the kinase prevents phosphorylation of the Ulight-substrate, resulting in a loss of FRET. In table 2 is summarized the relevant information for the LANCE assay.
The compounds of general formula (I) summarized in Table 3 were serial diluted from a 10 mM DMSO stock solution 1:3 over 8 steps in a total volume of 20 μl.
For every sample, 8 μl of kinase-substrate mix was transferred into a suitable assay plate (e.g. Corning #3673). Compound was added via pintool transfer (10 nl/well) using a Biomek FX robot (BeckmanCoulter). Reaction was started by addition of 2 μl ATP working solution and mixed using variomag teleshaker (Thermo Fischer Scientific). After 1 h incubation at room temperature the reaction was stopped with 10 μl detection mix containing the Eu-labeled phosphospecific antibody and 10 mM EDTA. After a second incubation period of 1 h at room temperature the FRET signal was measured at 340 nm excitation, 665 nm and 615 nm emission (for the ULight-substrate and Eu-AB, respectively) with an Envision spectrophotometer (Perkin Elmer, Waltham, Mass., USA) with 50 μs delay and 300 μs integration time. IC50 values were determined from the sigmoidal dose response curves with the software Quattro Workflow (Quattro GmbH, Munich, Germany).

A431 = A431 CellTiter-Glo; type: cell-based; conditions: Homo sapiens, A-431; 72 h compound incubation; read-out: A431 CTG IC50
Description: as §1, §2, §4

Sequence of EGFR Exon 20 INSNPH Ba/F3 (P00533 with tags, fused parts or gaps DUP771-773): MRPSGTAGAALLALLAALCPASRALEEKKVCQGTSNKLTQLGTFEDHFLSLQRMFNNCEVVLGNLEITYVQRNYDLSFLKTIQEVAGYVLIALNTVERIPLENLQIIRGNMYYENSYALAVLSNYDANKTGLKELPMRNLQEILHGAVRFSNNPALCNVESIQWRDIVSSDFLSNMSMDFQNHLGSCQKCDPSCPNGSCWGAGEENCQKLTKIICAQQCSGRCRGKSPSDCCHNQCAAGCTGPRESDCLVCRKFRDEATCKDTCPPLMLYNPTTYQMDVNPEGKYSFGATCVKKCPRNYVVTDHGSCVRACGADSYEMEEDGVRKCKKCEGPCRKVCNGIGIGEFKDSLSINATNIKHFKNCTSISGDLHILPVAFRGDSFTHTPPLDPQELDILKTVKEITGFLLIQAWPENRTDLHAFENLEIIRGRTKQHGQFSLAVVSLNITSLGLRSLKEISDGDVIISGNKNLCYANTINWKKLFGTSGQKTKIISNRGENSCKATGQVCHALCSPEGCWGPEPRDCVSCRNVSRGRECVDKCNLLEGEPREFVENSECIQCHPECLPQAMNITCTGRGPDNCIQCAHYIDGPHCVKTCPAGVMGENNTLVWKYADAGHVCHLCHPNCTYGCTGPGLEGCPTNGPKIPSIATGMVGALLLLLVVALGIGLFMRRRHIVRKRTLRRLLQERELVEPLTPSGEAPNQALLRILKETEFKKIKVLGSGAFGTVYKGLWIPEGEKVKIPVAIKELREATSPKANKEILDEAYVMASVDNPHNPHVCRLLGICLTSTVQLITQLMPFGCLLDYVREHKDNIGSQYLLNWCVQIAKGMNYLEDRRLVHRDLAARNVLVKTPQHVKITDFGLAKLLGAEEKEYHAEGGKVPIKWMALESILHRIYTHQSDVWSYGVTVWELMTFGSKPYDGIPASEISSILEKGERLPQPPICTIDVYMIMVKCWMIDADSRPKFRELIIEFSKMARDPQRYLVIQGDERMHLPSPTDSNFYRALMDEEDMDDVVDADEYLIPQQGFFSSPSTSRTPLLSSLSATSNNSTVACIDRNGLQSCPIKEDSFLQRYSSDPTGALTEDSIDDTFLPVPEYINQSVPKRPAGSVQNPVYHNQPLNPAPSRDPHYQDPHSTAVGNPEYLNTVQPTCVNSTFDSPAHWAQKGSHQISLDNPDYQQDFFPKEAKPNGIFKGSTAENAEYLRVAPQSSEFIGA

GI50 ([1]; CellTiter-Glo) | IC50 (EGFR T790ML858R) | GI50 ([2]; CellTiter-Glo) | IC50 (EGFR wt) | IC50 (H1975) | IC50 (HER2 INS YVMA; biochemical Lance assay) | IC50 (A431) | GI50 [1] | GI50 [2] | IC50 (HER2 INS YVMA) | SMILES
1000 to 10000 nM | ≤ 100 nM | 1000 to 10000 nM | ≤ 100 nM | 1000 to 100000 nM | ≤ 100 nM | 1000 to 100000 nM | – | – | – | C=CC(=O)Nc1cc(-c2c(-c3ccc(N4CCN(C)CC4)cc3)[nH]c3ncc(NC(C)=O)cc23)ccc1C [Example 201, N-(5-(5-acetamido-2-(4-(4-methylpiperazin-1-yl)phenyl)-1H-pyrrolo[2,3-b]pyridin-3-yl)-2-methylphenyl)acrylamide]
1000 to 10000 nM | ≤ 100 nM | 1000 to 10000 nM | 100 to 500 nM | 100 to 500 nM | 100 to 500 nM | – | – | – | – | C=CC(=O)Nc1cc(-c2c(-c3cccc(C(=O)N4CCN(C(C)=O)CC4)c3)[nH]c3nccc(Cl)c23)ccc1C [Example 52, N-(5-(2-(3-(4-acetylpiperazine-1-carbonyl)phenyl)-4-chloro-1H-pyrrolo[2,3-b]pyridin-3-yl)-2-methylphenyl)acrylamide]
– | – | – | – | – | – | – | 35 nM | 64 nM | 5 nM | C=CC(=O)Nc1cc(-c2c(-c3ccc(N4CCN(C)CC4)cc3)[nH]c3nccc(Cl)c23)ccc1C [drawing 711]
– | – | – | – | – | – | – | 1310 nM | 754 nM | 916 nM | CCC(=O)Nc1cc(-c2c(-c3ccc(N4CCN(C)CC4)cc3)[nH]c3nccc(Cl)c23)ccc1C [reference compound]
1000 to 10000 nM | ≤ 100 nM | 1000 to 10000 nM | ≤ 100 nM | 100 to 500 nM | ≤ 100 nM | – | – | – | – | C=CC(=O)Nc1cc(-c2c(-c3cccc(C(=O)N4CCC5(CC4)CN(C)C5)c3)[nH]c3nccc(Cl)c23)ccc1C [Example 53, N-(5-(4-chloro-2-(3-(2-methyl-2,7-diazaspiro[3.5]nonane-7-carbonyl)phenyl)-1H-pyrrolo[2,3-b]pyridin-3-yl)-2-methylphenyl)acrylamide]
– | ≤ 100 nM | – | ≤ 100 nM | 100 to 500 nM | ≤ 100 nM | 500 to 1000 nM | – | – | – | C=CC(=O)Nc1cc(-c2c(-c3ccc(N4CCN(C)CC4)cc3)[nH]c3ncc(C(=O)OC(C)C)c(C)c23)ccc1C [Example 198, isopropyl 3-(3-acrylamido-4-methylphenyl)-4-methyl-2-(4-(4-methylpiperazin-1-yl)phenyl)-1H-pyrrolo[2,3-b]pyridine-5-carboxylate]

The next lines start with the molecule.

SMILES | GI50 ([1]; CellTiter-Glo) | IC50 (EGFR T790ML858R) | GI50 ([2]; CellTiter-Glo) | IC50 (EGFR wt) | IC50 (H1975) | IC50 (HER2 INS YVMA; biochemical Lance assay) | IC50 (A431) | GI50 [1] | GI50 [2] | IC50 (HER2 INS YVMA)
C=CC(=O)Nc1cc(-c2c(-c3cccc(C(=O)NC4CC4)c3)[nH]c3nccc(Cl)c23)ccc1C [Example 49, 3-(3-(3-acrylamido-4-methylphenyl)-4-chloro-1H-pyrrolo[2,3-b]pyridin-2-yl)-N-cyclopropylbenzamide] | 1000 to 10000 nM | ≤ 100 nM | 500 to 1000 nM | 100 to 500 nM | 100 to 500 nM | 500 to 1000 nM | – | – | – | –
C=CC(=O)Nc1cc(-c2c(-c3cccc(C(=O)N4CCCCCC4)c3)[nH]c3nccc(Cl)c23)ccc1C [Example 45, N-(5-(2-(3-(azepane-1-carbonyl)phenyl)-4-chloro-1H-pyrrolo[2,3-b]pyridin-3-yl)-2-methylphenyl)acrylamide] | 1000 to 10000 nM | 100 to 500 nM | 1000 to 10000 nM | 1000 to 100000 nM | 1000 to 100000 nM | > 10000 nM | – | – | – | –
C=CC(=O)Nc1cc(-c2c(-c3cccc(C(=O)NCCCN(C)Cc4ccccc4)c3)[nH]c3nccc(Cl)c23)ccc1C [Example 51, 3-(3-(3-acrylamido-4-methylphenyl)-4-chloro-1H-pyrrolo[2,3-b]pyridin-2-yl)-N-(3-(benzyl(methyl)amino)propyl)benzamide] | 500 to 1000 nM | ≤ 100 nM | 500 to 1000 nM | ≤ 100 nM | ≤ 100 nM | 100 to 500 nM | – | – | – | –
C=CC(=O)Nc1cc(-c2c(-c3ccc(F)c(C(=O)N4CCOCC4)c3)[nH]c3nccc(Cl)c23)ccc1C [Example 33, N-(5-(4-chloro-2-(4-fluoro-3-(morpholine-4-carbonyl)phenyl)-1H-pyrrolo[2,3-b]pyridin-3-yl)-2-methylphenyl)acrylamide] | 1000 to 10000 nM | 100 to 500 nM | 1000 to 10000 nM | 500 to 1000 nM | 100 to 500 nM | 1000 to 10000 nM | – | – | – | –
C=CC(=O)Nc1cc(-c2c(-c3cccc(N4CCN(C(C)=O)CC4)c3)[nH]c3nccc(Cl)c23)ccc1C [Example 35, N-(5-(2-(3-(4-acetylpiperazin-1-yl)phenyl)-4-chloro-1H-pyrrolo[2,3-b]pyridin-3-yl)-2-methylphenyl)acrylamide] | 500 to 1000 nM | ≤ 100 nM | 500 to 1000 nM | ≤ 100 nM | ≤ 100 nM | 100 to 500 nM | – | – | – | –
C=CC(=O)Nc1cc(-c2c(-c3ccc(Cl)c(C(=O)N4CCOCC4)c3)[nH]c3nccc(Cl)c23)ccc1C [Example 34, N-(5-(4-chloro-2-(4-chloro-3-(morpholine-4-carbonyl)phenyl)-1H-pyrrolo[2,3-b]pyridin-3-yl)-2-methylphenyl)acrylamide] | 1000 to 10000 nM | 100 to 500 nM | 1000 to 10000 nM | 1000 to 100000 nM | 500 to 1000 nM | 1000 to 10000 nM | – | – | – | –
C=CC(=O)Nc1cc(-c2c(-c3cccc(C(=O)NC4CCCCC4)c3)[nH]c3nccc(Cl)c23)ccc1C [Example 50, 3-(3-(3-acrylamido-4-methylphenyl)-4-chloro-1H-pyrrolo[2,3-b]pyridin-2-yl)-N-cyclohexylbenzamide] | 1000 to 10000 nM | 100 to 500 nM | 1000 to 10000 nM | 1000 to 100000 nM | 500 to 1000 nM | > 10000 nM | – | – | – | –
C=CC(=O)Nc1cc(-c2c(-c3cccc(C(=O)N4CCC5(CCNC5=O)CC4)c3)[nH]c3nccc(Cl)c23)ccc1C [Example 46, N-(5-(4-chloro-2-(3-(1-oxo-2,8-diazaspiro[4.5]decane-8-carbonyl)phenyl)-1H-pyrrolo[2,3-b]pyridin-3-yl)-2-methylphenyl)acrylamide] | 1000 to 10000 nM | ≤ 100 nM | 1000 to 10000 nM | 500 to 1000 nM | 1000 to 100000 nM | 1000 to 10000 nM | – | – | – | –
C=CC(=O)Nc1cc(-c2c(-c3cccc(C(=O)N4CCN(C)CC4)c3)[nH]c3nccc(Cl)c23)ccc1C [Example 44, N-(5-(4-chloro-2-(3-(4-methylpiperazine-1-carbonyl)phenyl)-1H-pyrrolo[2,3-b]pyridin-3-yl)-2-methylphenyl)acrylamide 2,2,2-trifluoroacetate] | 1000 to 10000 nM | ≤ 100 nM | 1000 to 10000 nM | 100 to 500 nM | 100 to 500 nM | 100 to 500 nM | – | – | – | –
